Test results as given in US20250163056A1, “NONMUSCLE MYOSIN II INHIBITORS” (The University of Florida Research Foundation, Inc., priority 2018, published 2025).

Tests used:
Bovine cardiac myosin = Bovine cardiac myosin (Bos taurus (Bovine), UniProt Q9BE39); test: Cardiac muscle myosin II actin-activated ATPase assay (NADH-coupled); type: biochemical; parameters: key to Ratio CMMII:NMII Ki/EC50: NMII-sel: no Ki value for cardiac myosin II could be determined; the compounds had no detectable inhibitory properties versus the cardiac myosin II; details: for Ki: 300 nM cardiac myosin, 10 μM actin, 25° C., read-out: CMMII KI; for Ratio CMMII:NMII Ki/EC50: cardiac myosin II Ki over nonmuscle myosin II EC50
Bovine cardiac myosin, sequence (Q9BE39 whole entry): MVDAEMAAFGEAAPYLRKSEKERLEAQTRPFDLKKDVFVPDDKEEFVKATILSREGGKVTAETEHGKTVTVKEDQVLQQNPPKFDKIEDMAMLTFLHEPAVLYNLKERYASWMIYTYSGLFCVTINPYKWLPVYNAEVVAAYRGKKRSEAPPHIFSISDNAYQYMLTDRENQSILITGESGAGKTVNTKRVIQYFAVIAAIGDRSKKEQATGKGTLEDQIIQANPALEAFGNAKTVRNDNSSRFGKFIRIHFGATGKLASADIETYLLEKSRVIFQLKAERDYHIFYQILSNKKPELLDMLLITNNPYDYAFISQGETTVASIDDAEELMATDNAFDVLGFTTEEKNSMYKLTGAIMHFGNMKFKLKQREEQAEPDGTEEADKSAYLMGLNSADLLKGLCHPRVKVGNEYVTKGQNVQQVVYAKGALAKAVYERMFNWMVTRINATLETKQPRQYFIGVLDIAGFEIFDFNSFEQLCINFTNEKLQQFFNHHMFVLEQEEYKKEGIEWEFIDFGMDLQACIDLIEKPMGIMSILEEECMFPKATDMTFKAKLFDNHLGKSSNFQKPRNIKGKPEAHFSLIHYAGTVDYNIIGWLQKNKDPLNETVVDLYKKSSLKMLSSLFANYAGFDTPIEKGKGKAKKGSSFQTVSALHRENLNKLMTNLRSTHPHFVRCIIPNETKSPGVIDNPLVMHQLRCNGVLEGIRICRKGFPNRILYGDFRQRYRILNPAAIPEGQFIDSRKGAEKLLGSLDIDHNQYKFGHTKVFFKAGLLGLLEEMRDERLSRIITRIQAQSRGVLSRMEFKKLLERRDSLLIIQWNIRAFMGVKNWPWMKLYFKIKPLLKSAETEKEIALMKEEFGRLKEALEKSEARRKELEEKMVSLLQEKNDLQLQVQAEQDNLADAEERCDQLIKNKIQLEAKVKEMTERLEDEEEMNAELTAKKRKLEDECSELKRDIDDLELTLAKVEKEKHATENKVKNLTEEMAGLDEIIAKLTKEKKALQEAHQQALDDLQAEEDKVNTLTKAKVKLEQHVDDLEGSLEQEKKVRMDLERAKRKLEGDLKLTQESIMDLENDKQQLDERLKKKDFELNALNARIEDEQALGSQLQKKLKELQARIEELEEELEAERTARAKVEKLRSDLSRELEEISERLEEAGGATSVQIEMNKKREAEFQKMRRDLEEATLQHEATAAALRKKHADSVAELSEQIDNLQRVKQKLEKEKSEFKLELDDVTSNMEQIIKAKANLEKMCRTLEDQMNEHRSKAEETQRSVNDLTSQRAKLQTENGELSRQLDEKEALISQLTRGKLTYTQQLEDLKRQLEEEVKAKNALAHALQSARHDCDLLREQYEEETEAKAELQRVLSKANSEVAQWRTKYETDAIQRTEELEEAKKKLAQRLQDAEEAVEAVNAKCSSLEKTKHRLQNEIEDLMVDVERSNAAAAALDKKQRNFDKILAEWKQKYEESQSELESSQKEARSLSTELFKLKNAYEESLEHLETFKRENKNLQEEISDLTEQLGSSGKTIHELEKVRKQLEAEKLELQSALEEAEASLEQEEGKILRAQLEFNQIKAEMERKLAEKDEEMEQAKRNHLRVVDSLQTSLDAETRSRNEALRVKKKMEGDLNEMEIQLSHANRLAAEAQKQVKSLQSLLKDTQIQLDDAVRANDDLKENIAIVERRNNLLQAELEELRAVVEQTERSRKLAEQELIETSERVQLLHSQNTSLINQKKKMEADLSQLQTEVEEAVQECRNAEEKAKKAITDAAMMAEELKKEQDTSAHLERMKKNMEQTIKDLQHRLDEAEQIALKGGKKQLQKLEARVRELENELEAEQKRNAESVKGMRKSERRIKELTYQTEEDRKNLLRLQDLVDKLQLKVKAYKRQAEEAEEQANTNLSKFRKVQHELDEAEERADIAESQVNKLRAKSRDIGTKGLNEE
Bovine cardiac myosin, sequence (P85100 whole entry partner): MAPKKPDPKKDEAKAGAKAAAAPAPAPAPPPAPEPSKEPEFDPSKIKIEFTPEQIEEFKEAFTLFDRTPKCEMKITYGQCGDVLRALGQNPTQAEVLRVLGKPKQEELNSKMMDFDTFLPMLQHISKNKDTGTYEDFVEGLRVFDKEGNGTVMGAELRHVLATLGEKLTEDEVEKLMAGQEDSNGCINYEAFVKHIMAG
Bovine cardiac myosin, sequence (Q3SZE5 whole entry partner): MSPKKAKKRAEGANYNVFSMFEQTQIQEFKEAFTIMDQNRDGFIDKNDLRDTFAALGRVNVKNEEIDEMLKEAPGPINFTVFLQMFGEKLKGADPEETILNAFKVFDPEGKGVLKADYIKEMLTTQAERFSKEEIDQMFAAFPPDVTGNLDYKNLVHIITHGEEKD
In short: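 Inhibitory constants came from a quadratic one-to-one binding fit of 16-point dose-responses (highest final 50 uM, triplicate). Rates were NADH-calibrated fluorescence slopes over 30 min at 25° C, with 300 nM bovine cardiac myosin, 10 μM actin and 1 mM ATP coupled through PK/LDH in pH 7.0 MOPS buffer.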

[1] = Photostability, percentage remaining undegraded under illumination or in the dark; details: for Photostability 4 hours: percentage remaining undegraded after 4 hours illumination; for Photostability 24 hours: percentage remaining undegraded after 24 hours illumination; for Photostability Dark (24 h): percentage remaining undegraded in the dark
Rabbit skeletal myosin = test: Skeletal muscle myosin II actin-activated ATPase assay; type: biochemical; details: 20 nM skeletal muscle myosin II; read-out: SKMMII KI
In short: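 Inhibitory constants come from a quadratic one-site fit of 16-point, triplicate dose-response data, highest compound concentration 50 uM. Rates are slopes of NADH fluorescence decline over 30 min, coupling ATP turnover of 20 nM rabbit skeletal myosin II with 10 μM actin and 1 mM ATP via PK/LDH, pH 7.0, 25 °C.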

Structure (SMILES): Cc1ccc(N2CC[C@@]3(O)C(=O)c4cc(C)c(C)cc4N=C23)cc1 [BPN-0026663]
- Ki (Bovine cardiac myosin): 2.8 µM
- Ratio CMMII:NMII Ki/EC50 (Bovine cardiac myosin): 3.5
- Photostability 4 hours [1]: 40.7%
- Photostability 24 hours [1]: 2.0%
- Photostability Dark (24 h) [1]: 97.3%
- Ki (Rabbit skeletal myosin): 0.12 µM

Structure (SMILES): Cc1cc2c(cc1C)C(=O)[C@]1(O)CCN(c3ccc4ccoc4c3)C1=N2 [BPN-0026664]
- Ki (Bovine cardiac myosin): 29 µM
- Ratio CMMII:NMII Ki/EC50 (Bovine cardiac myosin): 33.3
- Photostability 4 hours [1]: 30.3%
- Photostability 24 hours [1]: <1%
- Photostability Dark (24 h) [1]: 97.7%
- Ki (Rabbit skeletal myosin): 1.5 µM

Structure (SMILES): COc1ccc(N2CC[C@@]3(O)C(=O)c4cc(C)c(C)cc4N=C23)cc1 [BPN-0026665]
- Ki (Bovine cardiac myosin): 4.2 µM
- Ratio CMMII:NMII Ki/EC50 (Bovine cardiac myosin): 6.7
- Photostability 4 hours [1]: 2.7%
- Photostability 24 hours [1]: <1%
- Photostability Dark (24 h) [1]: 97.4%
- Ki (Rabbit skeletal myosin): 0.14 µM

Structure (SMILES): Cc1ncc(N2CC[C@@]3(O)C(=O)c4cc(F)c(C(F)(F)F)cc4N=C23)s1 [BPN-0026667]
- Ki (Bovine cardiac myosin): 6.2 µM
- Ratio CMMII:NMII Ki/EC50 (Bovine cardiac myosin): 5.2
- Photostability 4 hours [1]: 85.7%
- Photostability 24 hours [1]: 2.9%
- Photostability Dark (24 h) [1]: >99%
- Ki (Rabbit skeletal myosin): 0.33 µM

Structure (SMILES): Cc1cc2c(cc1F)C(=O)[C@]1(O)CCN(c3ccccc3)C1=N2 [BPN-0026669]
- Ki (Bovine cardiac myosin): 25 µM
- Ratio CMMII:NMII Ki/EC50 (Bovine cardiac myosin): 4.7
- Photostability 4 hours [1]: 87.8%
- Photostability 24 hours [1]: 11.2%
- Photostability Dark (24 h) [1]: >99%
- Ki (Rabbit skeletal myosin): 1.2 µM

Structure (SMILES): Cc1ncc(N2CC[C@@]3(O)C(=O)c4cc(C)c(C)cc4N=C23)s1 [BPN-0026693]
- Ki (Bovine cardiac myosin): 3.5 µM
- Ratio CMMII:NMII Ki/EC50 (Bovine cardiac myosin): 6.0
- Photostability 4 hours [1]: 34.1%
- Photostability 24 hours [1]: 1.7%
- Photostability Dark (24 h) [1]: >99%
- Ki (Rabbit skeletal myosin): 0.27 µM

Structure (SMILES): Cc1cc2c(cc1C)C(=O)[C@]1(O)CCN(c3cccs3)C1=N2 [BPN-0026708]
- Ki (Bovine cardiac myosin): 5.3 µM
- Ratio CMMII:NMII Ki/EC50 (Bovine cardiac myosin): 3.1
- Photostability 4 hours [1]: 40.7%
- Photostability 24 hours [1]: <1%
- Photostability Dark (24 h) [1]: >99%
- Ki (Rabbit skeletal myosin): 1.4 µM

Structure (SMILES): COc1cc(N2CC[C@@]3(O)C(=O)c4cc(C)c(C)cc4N=C23)ccn1 [BPN-0026709]
- Ki (Bovine cardiac myosin): 30.6 µM
- Ratio CMMII:NMII Ki/EC50 (Bovine cardiac myosin): 25.5
- Photostability 4 hours [1]: 98.7%
- Photostability 24 hours [1]: 93.0%
- Photostability Dark (24 h) [1]: 98.2%
- Ki (Rabbit skeletal myosin): 1.3 µM

Structure (SMILES): Cc1cc2c(cc1C)C(=O)[C@]1(O)CCN(c3cnn(C)c3)C1=N2 [BPN-0026710]
- Ki (Bovine cardiac myosin): 5.2 µM
- Ratio CMMII:NMII Ki/EC50 (Bovine cardiac myosin): 3.1
- Photostability 4 hours [1]: 6.6%
- Photostability 24 hours [1]: <1%
- Photostability Dark (24 h) [1]: >99%
- Ki (Rabbit skeletal myosin): 0.95 µM

Structure (SMILES): Cc1cc2cc(N3CC[C@@]4(O)C(=O)c5cc(F)c(C)cc5N=C34)ccc2o1 [BPN-0026726]
- Ratio CMMII:NMII Ki/EC50 (Bovine cardiac myosin): NMII-sel
- Photostability 4 hours [1]: 76.3%
- Photostability 24 hours [1]: 24.1%
- Photostability Dark (24 h) [1]: 95.4%
- Ki (Rabbit skeletal myosin): 4.4 µM

Structure (SMILES): COc1cc(N2CC[C@@]3(O)C(=O)c4cc(F)c(C)cc4N=C23)ccn1 [BPN-0026745]
- Ki (Bovine cardiac myosin): 73 µM
- Ratio CMMII:NMII Ki/EC50 (Bovine cardiac myosin): 25.2
- Photostability 4 hours [1]: >99%
- Photostability 24 hours [1]: 94.2%
- Photostability Dark (24 h) [1]: >99%
- Ki (Rabbit skeletal myosin): 2.6 µM

Structure (SMILES): Cc1cc2c(cc1F)C(=O)[C@]1(O)CCN(c3cnn(C)c3)C1=N2 [BPN-0026746]
- Ki (Bovine cardiac myosin): 17 µM
- Ratio CMMII:NMII Ki/EC50 (Bovine cardiac myosin): 3.8
- Photostability 4 hours [1]: 58.8%
- Photostability 24 hours [1]: 10.6%
- Photostability Dark (24 h) [1]: >99%
- Ki (Rabbit skeletal myosin): 3.6 µM

Structure (SMILES): Cc1cc2c(cc1F)C(=O)[C@]1(O)CCN(c3cccs3)C1=N2 [BPN-0026748]
- Ki (Bovine cardiac myosin): 14 µM
- Ratio CMMII:NMII Ki/EC50 (Bovine cardiac myosin): 4.7
- Photostability 4 hours [1]: 88.2%
- Photostability 24 hours [1]: 22.4%
- Photostability Dark (24 h) [1]: >99%
- Ki (Rabbit skeletal myosin): 2.6 µM

Structure (SMILES): CCc1cc2c(s1)N=C1N(c3ccc4ccoc4c3)CC[C@@]1(O)C2=O [BPN-0026749]
- Ratio CMMII:NMII Ki/EC50 (Bovine cardiac myosin): NMII-sel
- Photostability 4 hours [1]: 87.8%
- Photostability 24 hours [1]: <5%
- Photostability Dark (24 h) [1]: >99%
- Ki (Rabbit skeletal myosin): 23 µM

Structure (SMILES): CCc1cc2c(s1)N=C1N(c3ccc(Cl)cc3)CC[C@@]1(O)C2=O [BPN-0026770]
- Ratio CMMII:NMII Ki/EC50 (Bovine cardiac myosin): NMII-sel
- Photostability 4 hours [1]: >99%
- Photostability 24 hours [1]: 92.9%
- Photostability Dark (24 h) [1]: >99%
- Ki (Rabbit skeletal myosin): 1.5 µM

Structure (SMILES): CCc1cc2c(s1)N=C1N(c3ccc(C)cc3)CC[C@@]1(O)C2=O [BPN-0026774]
- Ki (Bovine cardiac myosin): 8.9 µM
- Ratio CMMII:NMII Ki/EC50 (Bovine cardiac myosin): 3.4
- Photostability 4 hours [1]: 86.7%
- Photostability 24 hours [1]: 18.1%
- Photostability Dark (24 h) [1]: >99%
- Ki (Rabbit skeletal myosin): 1.1 µM

Structure (SMILES): O=C1c2c(sc3ccccc23)N=C2N(c3ccccc3)CC[C@@]12O [BPN-0026785]
- Ki (Bovine cardiac myosin): 23 µM
- Ratio CMMII:NMII Ki/EC50 (Bovine cardiac myosin): 3.1
- Photostability 4 hours [1]: 95.8%
- Photostability 24 hours [1]: 59.3%
- Photostability Dark (24 h) [1]: 91.6%
- Ki (Rabbit skeletal myosin): 5.9 µM

Structure (SMILES): COc1ccc(N2CC[C@@]3(O)C(=O)c4c(sc(C)c4C)N=C23)cc1 [BPN-0026813]
- Ki (Bovine cardiac myosin): 1.6 µM
- Ratio CMMII:NMII Ki/EC50 (Bovine cardiac myosin): 3.1
- Photostability 4 hours [1]: 82.0%
- Photostability 24 hours [1]: <1%
- Photostability Dark (24 h) [1]: >99%
- Ki (Rabbit skeletal myosin): 0.11 µM

Structure (SMILES): Cc1sc2c(c1C)C(=O)[C@]1(O)CCN(c3ccc(Cl)cc3)C1=N2 [BPN-0026815]
- Ki (Bovine cardiac myosin): 2.8 µM
- Ratio CMMII:NMII Ki/EC50 (Bovine cardiac myosin): 3.6
- Photostability 4 hours [1]: 91.2%
- Photostability 24 hours [1]: 88.2%
- Photostability Dark (24 h) [1]: 90.2%
- Ki (Rabbit skeletal myosin): 0.27 µM

Structure (SMILES): Cc1ccc(N2CC[C@@]3(O)C(=O)c4cc(C)c(C(F)(F)F)cc4N=C23)cc1 [BPN-0026819]
- Ki (Bovine cardiac myosin): 50 µM
- Ratio CMMII:NMII Ki/EC50 (Bovine cardiac myosin): 27.8
- Photostability 4 hours [1]: 96.6%
- Photostability 24 hours [1]: 84.8%
- Photostability Dark (24 h) [1]: 97.3%
- Ki (Rabbit skeletal myosin): 1.7 µM

Structure (SMILES): CCc1cc2c(s1)N=C1N(c3ccc(C#N)c(C)c3)CC[C@@]1(O)C2=O [BPN-0026848]
- Ki (Bovine cardiac myosin): 320 µM
- Ratio CMMII:NMII Ki/EC50 (Bovine cardiac myosin): 12.3
- Photostability 4 hours [1]: >99%
- Photostability 24 hours [1]: 98.7%
- Photostability Dark (24 h) [1]: >99%
- Ki (Rabbit skeletal myosin): 61 µM

Structure (SMILES): COc1ccc(N2CC[C@@]3(O)C(=O)c4cc(C)c(C(F)(F)F)cc4N=C23)cc1 [BPN-0026849]
- Ki (Bovine cardiac myosin): 16 µM
- Ratio CMMII:NMII Ki/EC50 (Bovine cardiac myosin): 16.0
- Photostability 4 hours [1]: 98.5%
- Photostability 24 hours [1]: 91.8%
- Photostability Dark (24 h) [1]: >99%
- Ki (Rabbit skeletal myosin): 0.77 µM

Structure (SMILES): Cc1cc2cc(N3CC[C@@]4(O)C(=O)c5cc(C)c(C)cc5N=C34)ccc2o1 [BPN-0026852]
- Ki (Bovine cardiac myosin): 25 µM
- Ratio CMMII:NMII Ki/EC50 (Bovine cardiac myosin): 9.6
- Photostability 4 hours [1]: 62.4%
- Photostability 24 hours [1]: 3.8%
- Photostability Dark (24 h) [1]: 85.1%
- Ki (Rabbit skeletal myosin): 5.6 µM

Structure (SMILES): CCc1cc2c(s1)N=C1N(c3ccc(OC)cc3)CC[C@@]1(O)C2=O [BPN-0026881]
- Ki (Bovine cardiac myosin): 11 µM
- Ratio CMMII:NMII Ki/EC50 (Bovine cardiac myosin): 6.1
- Photostability 4 hours [1]: 70.9%
- Photostability 24 hours [1]: 1.8%
- Photostability Dark (24 h) [1]: >99%
- Ki (Rabbit skeletal myosin): 0.8 µM

Structure (SMILES): Cc1cc2c(s1)C(=O)[C@]1(O)CCN(c3ccc(C)c(Cl)c3)C1=N2 [BPN-0026882]
- Ki (Bovine cardiac myosin): 21 µM
- Ratio CMMII:NMII Ki/EC50 (Bovine cardiac myosin): 3.6
- Photostability 4 hours [1]: 98.8%
- Photostability 24 hours [1]: 96.8%
- Photostability Dark (24 h) [1]: >99%
- Ki (Rabbit skeletal myosin): 4.5 µM
